Data taken from patent US20240343761A1, “APELINERGIC MACROCYCLES AND USES THEREOF” (priority 2021, published 2024).
Where two headings read alike, the source gives them in different places. Bridge positions count the residues as written; N and C are the ends. Square brackets hold non-standard residues; d marks the D form. Ends that are not written are not given here. d1Nal = N[C@H](Cc1cccc2ccccc12)C(=O)O; AllylGly = C=CC[C@H](N)C(=O)O

Tests used:
hAPJ receptor [1] = molecular target: T1, hAPJ receptor (Homo sapiens, UniProt P35414); assay: BRET-based Gαi1 activation assay in HEK293 cells; type: cell-based; details: for Emax: HEK293, Table V, read-out: Gαi1 Emax
T1 construct: expressed in transfected cells; host or cells: HEK293, transient transfection with PEI
T1 sequence (P35414 1-380): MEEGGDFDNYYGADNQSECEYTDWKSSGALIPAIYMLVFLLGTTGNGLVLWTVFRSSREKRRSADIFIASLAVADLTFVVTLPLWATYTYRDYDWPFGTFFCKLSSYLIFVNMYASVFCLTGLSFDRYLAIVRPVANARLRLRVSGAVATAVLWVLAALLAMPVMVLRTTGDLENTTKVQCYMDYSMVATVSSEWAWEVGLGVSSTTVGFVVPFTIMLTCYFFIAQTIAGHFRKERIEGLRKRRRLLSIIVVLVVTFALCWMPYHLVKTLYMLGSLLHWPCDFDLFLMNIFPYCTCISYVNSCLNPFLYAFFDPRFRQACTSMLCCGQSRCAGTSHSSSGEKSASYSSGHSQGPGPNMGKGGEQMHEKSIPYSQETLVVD
Method in brief: (§1)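 HEK293 cells in HBSS stimulated with analogs from 10^−5 to 10^−11 M, 5 min at 37 °C (Gαi1) or 30 min at room temperature (β-arrestin2).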

hAPJ receptor [2] = molecular target: T1, hAPJ receptor; assay: BRET-based β-arrestin2 recruitment assay in HEK293 cells; type: cell-based; details: for Emax: HEK293
Method in brief: as §1

[3] = test system: anesthetized male Sprague-Dawley rats; assay: In vivo blood pressure measurement; parameters: species or system rat; details: i.v. bolus, doses 19.6 and 65 nmol/kg
Procedure: The animal experimental protocols were approved by the Animal Care Committee of Université de Sherbrooke and complied with policies and directives of the Canadian Council on Animal Care.
Male Sprague-Dawley rats (8-10 weeks of age) were anesthetized with ketamine/xylazine injection (87/13 mg/kg i.m.) and placed in supine position on a thermostatic pad. Their right carotid artery was catheterized with PE 50 (filled with heparinized saline), connected to a Micro-Med transducer (model TDX-300, Calabasas, USA) and Micro-Med blood pressure analyzer (model BPA-100c). […] This i.v. catheter was flushed with saline (0.2 mL) immediately after each injection.

[4] = Rat plasma stability (half-life in vitro); type: in vitro ADME; details: rat plasma; for half-life at […]: male, Sprague-Dawley, rat, plasma
Procedure: Plasma was obtained from male Sprague-Dawley rats by collecting blood in heparin tube and centrifugating at 13,000 rpm to remove blood cells. The isolated plasma was stored at −80° C. and thawed right before the test. In 96-well plate, 6 μL of peptide solution at 1 mM was incubated with 27 μL of plasma at 37° C. in an oven equipped with orbital shaker. Tightly fitted caps were used to seal the wells to avoid water evaporation during incubation. […] A 96-well UPLC plate was put at the bottom to collect the samples. Both plates were centrifuged at 500 g for 10 min at 4° C. to accelerate the filtration. […] The quantity of remaining peptide was plotted into an exponential one-phase decay curve using GraphPad Prism 8 which allowed to calculate peptide half-life. The results were presented as mean±SEM of at least 3 independent experiments, each done in simplicate.
The percentage of remaining analogue was calculated by doing the ratio between AU of compound and AUC of internal standard. Half-lives were extrapolated from curves.

in vivo = details: for AUC: male Sprague-Dawley rats
Procedure: Male Sprague-Dawley rats of 8-10 weeks were used in this study. […] Animals were placed in a containment chamber prior to i.v. injection to facilitate blood sampling. […] Those samples were immediately stored on crushed ice before being centrifuged at 13000 rpm for 5 min at 4° C. to isolate plasma (upper layer). The resultant plasma was transferred to polypropylene tubes, and immediately frozen at −80° C.
A combination of a protein precipitation and a solid phase extraction step were used to extract the peptides. Plasma sample was defrosted on ice. After vortex agitation (60 s), 100 μL sample was withdraw and 300 μL cold acetonitrile was added to precipitate the plasma proteins. The sample was then vortex (60 s) and centrifuged at 4500 rpm at 4° C. during 10 min. The supernatant was then isolated and directly pass through an HLB prime for additional clean up. The filtrate was diluted 10 times in 0.1% formic acid/water and filtered through a 0.22 μm syringe filter before LC/MS/MS analysis.
Samples were analyzed on a Sciex Qtrap 6500+ equipped with a microflow liquid chromatography (Eksigient M3 microflow) and a UPLC HSS-T3 column (1 mm×100 mm, 1.8 μm, equipped with a 0.2 μm fritted pre-filter). The solvent flow rate was set to 50 μL/min, the column temperature was kept at 40° C. and the injection volume was 3 μL. The mobile phase was 0.1% formic acid/water (A) and 0.1% formic acid/acetonitrile (B). The elution gradient starts with 2% of eluent B, increasing to 95% in 8 min, maintaining at 95% for 2 min and then back to initial conditions in 2 min for a total run time of 13 min. […] Analysis used two daughter traces (transitions), among them, the most abundant was for quantification and the second most abundant for confirmation.

Sprague-Dawley rats = assay: Echocardiography (cardiac performance) after s.c. injection; details: for effect on fractional shortening (FS) and cardiac output (CO): s.c. 0.2 μmol/kg, three hours after injection
[5] = molecular target: human APJ (transfected HEK293 cells, Gαi1 BRET assay) (human) (UniProt P35414); assay: cell-based or functional assay
[6] = molecular target: T2, YFP-tagged human APJ receptor (human, UniProt P35414 1-380); assay: competitive radioligand binding, HEK293-hAPJ membranes
T2 construct: whole, on cells; also called hAPJ; APJ WT; not shown: YFP tag
T2 sequence (looked up): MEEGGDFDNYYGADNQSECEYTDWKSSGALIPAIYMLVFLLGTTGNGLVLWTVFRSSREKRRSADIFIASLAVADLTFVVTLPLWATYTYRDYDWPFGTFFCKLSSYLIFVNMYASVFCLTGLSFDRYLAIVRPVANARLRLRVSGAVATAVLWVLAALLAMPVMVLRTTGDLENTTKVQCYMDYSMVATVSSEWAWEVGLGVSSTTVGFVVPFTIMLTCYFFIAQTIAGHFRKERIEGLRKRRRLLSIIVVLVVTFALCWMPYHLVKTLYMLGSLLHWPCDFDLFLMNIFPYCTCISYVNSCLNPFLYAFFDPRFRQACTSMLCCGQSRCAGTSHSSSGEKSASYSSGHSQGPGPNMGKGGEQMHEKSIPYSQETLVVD

[7] = molecular target: T3, human APJ (transfected HEK293 cells, Gαi1 BRET assay) (human, UniProt P35414 1-380); assay: cell-based or functional assay
T3 sequence (looked up): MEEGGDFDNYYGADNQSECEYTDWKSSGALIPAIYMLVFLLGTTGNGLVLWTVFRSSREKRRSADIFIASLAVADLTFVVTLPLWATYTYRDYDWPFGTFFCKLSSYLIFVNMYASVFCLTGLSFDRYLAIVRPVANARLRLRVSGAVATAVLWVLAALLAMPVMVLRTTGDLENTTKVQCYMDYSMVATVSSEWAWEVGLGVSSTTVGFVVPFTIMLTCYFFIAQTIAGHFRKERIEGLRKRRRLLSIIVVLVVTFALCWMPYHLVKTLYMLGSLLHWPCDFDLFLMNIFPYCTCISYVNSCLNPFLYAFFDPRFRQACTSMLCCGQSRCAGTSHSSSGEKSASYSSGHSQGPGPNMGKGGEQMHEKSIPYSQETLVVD

[8] = male, Sprague-Dawley, rat, plasma, iv, 3 mg/kg

## CCCC[C@H](NC(=O)[C@@H]1CCCN1C(=O)CNC(=O)[C@H](CCCCN)NC(=O)[C@@H]1Cc2cncn2CC=CC[C@H](NC(=O)[C@H](CCCNC(=N)N)NC(=O)[C@@H]2CCC(=O)N2)C(=O)N[C@@H](CCCNC(=N)N)C(=O)N[C@@H](CC(C)C)C(=O)N[C@@H](CO)C(=O)N1)C(=O)N1CCC[C@H]1C(=O)N[C@@H](Cc1ccccc1)C(=O)O [Compound 15, Pyr-R-c[X-R-L-S-Alh]c-K-G-P-Nle-P-F]
hAPJ receptor [1]
  Emax: 99%
hAPJ receptor [2]; Table V, read-out: ß-arr2 Emax
  Emax: 115%
hAPJ receptor [2]; read-out: β-arr2 Emax
  Emax: 115%
[3]
  ΔMABP (drop in blood pressure): −40 mmHg

## CCCC[C@H](NC(=O)[C@@H]1CCCN1C(=O)CNC(=O)[C@H](CCCCN)NC(=O)[C@@H]1CC=CC[C@H](N)C(=O)N[C@@H](CCCNC(=N)N)C(=O)N[C@@H](CC(C)C)C(=O)N[C@@H](CO)C(=O)N1)C(=O)N1CCC[C@H]1C(=O)N[C@@H](Cc1ccccc1)C(=O)O [Compound 20, NH2-c[X-R-L-S-X]c-K-G-P-Nle-P-F]
hAPJ receptor [1]
  Emax: 100%
hAPJ receptor [2]; Table V, read-out: ß-arr2 Emax
  Emax: 98%
hAPJ receptor [2]; read-out: β-arr2 Emax
  Emax: 98%
[3]
  ΔMABP (drop in blood pressure): −27 mmHg

## CCCC[C@H](NC(=O)[C@@H]1CCCN1C(=O)CNC(=O)[C@H](CCCCN)NC(=O)[C@@H]1CC=CC[C@H](N)C(=O)N[C@@H](CCCNC(=N)N)C(=O)N[C@@H](CC(C)C)C(=O)N[C@@H](CO)C(=O)N1)C(=O)O [Compound 29, NH2-c[X-R-L-S-X]c-K-G-P-Nle]
hAPJ receptor [1]
  Emax: 99%
hAPJ receptor [2]; Table V, read-out: ß-arr2 Emax
  Emax: 69%
hAPJ receptor [2]; read-out: β-arr2 Emax
  Emax: 69%
[4]
  times less stable than 20: 3 times
  times less stable than full-length analog 13: 5 times
[3]
  ΔMABP (drop in blood pressure): −13 mmHg

## CC(C)C[C@@H]1NC(=O)[C@H](CCCNC(=N)N)NC(=O)[C@@H](N)CC=CC[C@@H](C(=O)N[C@@H](CCCCN)C(=O)NCC(=O)N2CCC[C@H]2C(=O)N[C@H](Cc2cccc3ccccc23)C(=O)O)NC(=O)[C@H](CO)NC1=O [Compound 42, NH2-c[X-R-L-S-X]c-K-G-P-(D-1Nal)]
hAPJ receptor [1]
  agonist character on Gαi1: full agonists
  Emax: 103%
hAPJ receptor [2]
  agonist character on β-arrestin: partial agonists
hAPJ receptor [2]; Table V, read-out: ß-arr2 Emax
  Emax: 70%
hAPJ receptor [2]; read-out: β-arr2 Emax
  Emax: 70%
In vivo; 3 mg/kg
  plasma presence at 4 h: completely cleared from plasma
In vivo; i.v. 3 mg/kg
  AUC: 1.33 ± 0.18 min*(mg/mL)
[3]
  ΔMABP (drop in blood pressure): −24 mmHg
Sprague-Dawley rats
  effect on fractional shortening (FS) and cardiac output (CO): significant increase only in FS

## CC(C)C[C@@H]1NC(=O)[C@H](CCCNC(=N)N)NC(=O)[C@@H](N)CC=CC[C@@H](C(=O)N[C@@H](CCCCN)C(=O)NCC(=O)N2CCC[C@H]2C(=O)N[C@H](Cc2ccc3ccccc3c2)C(=O)O)NC(=O)[C@H](CO)NC1=O [Compound 43, NH2-c[X-R-L-S-X]c-K-G-P-(D-2Nal)]
hAPJ receptor [1]
  agonist character on Gαi1: full agonists
  Emax: 105%
hAPJ receptor [2]
  agonist character on β-arrestin: partial agonists
hAPJ receptor [2]; Table V, read-out: ß-arr2 Emax
  Emax: 55%
hAPJ receptor [2]; read-out: β-arr2 Emax
  Emax: 55%
[4]; Table I, 37° C., up to 24 h, read-out: Half-life in vitro (converted)
  half-life at […]: > 1440 min
[4]; Table V, read-out: Half-life t1/2
  half-life at […]: > 1440 min
In vivo; i.v. 3 mg/kg
  AUC: 8.80 ± 0.41 min*(mg/mL)
In vivo; [8]
  level at 5 min: 36100 ng/mL
  level at 4 h: 8600 ng/mL
[3]
  effect on blood pressure: no effect
Sprague-Dawley rats
  effect on fractional shortening (FS) and cardiac output (CO): significant increase in both FS and CO
Sprague-Dawley rats; s.c. 2 μmol/kg, 6 h
  CO increase from baseline: 16%
  FS increase: 17%

## CSCC[C@H](NC(=O)[C@@H]1CCCN1C(=O)CNC(=O)[C@H](CCCCN)NC(=O)[C@H](Cc1cnc[nH]1)NC(=O)[C@H](CO)NC(=O)[C@H](CC(C)C)NC(=O)[C@H](CCCNC(=N)N)NC(=O)[C@@H]1CCCN1C(=O)[C@H](CCCNC(=N)N)NC(=O)[C@@H]1CCC(=O)N1)C(=O)N1CCC[C@H]1C(=O)N[C@@H](Cc1ccccc1)C(=O)O [Compound 60, Pyr-R-P-R-L-S-H-K-G-P-M-P-F, reference compound]
In vivo; i.v. 3 mg/kg
  completely disappeared after: 5 min
  AUC: 0.0002 ± 0.0001 min*(mg/mL)
In vivo; [8]
  clearance: > 100 mL/min/kg
Sprague-Dawley rats
  effect on fractional shortening (FS) and cardiac output (CO): no observable effect

## Ac-Ape17-Met15Nle (KT03-12) (peptide)
[5]
  EC50 Gαi1: 2.88 nM
[6]
  Ki: 0.15 nM

## H-[AllylGly]RLS[AllylGly]KGP[d1Nal] (staple 1-5) [Compound 42 (KT04-43)]
[7]
  Gαi1 Emax (%): 103%
[6]
  Ki: 0.6 nM
